For orientation: inhibition means how much of the control response was suppressed.

Experiment [1] concerns normal human neonatal foreskin epidermal keratinocytes (NHEK-F). The experiment can be described thus: Cell proliferation inhibition test. It is filed as cell-based. Conditions: Keratinocyte, 72 h, NHEK-F cells, three days incubation, ATPlite or CellTiterGlo, read-out: IC50 (concentration of the compound at which the cell count is reduced by 50%). The method in brief: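 NHEK-F keratinocytes, 2×10^3 per well in Humedia-EG2, plated overnight, then exposed to compound for three days. Cell count by ATPlite or CellTiterGlo luminescence; inhibition = 100 − (treated/untreated count)×100, IC50 as 50% reduction concentration.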

Experiment [2] concerns TPA-induced ear edema and acanthosis in Balb/c mice. The experiment can be described thus: Mouse TPA-induced ear-swelling model. Format: in vivo. The following applies: topical, 240 h, 1% w/v solution, 20 μL applied to ear once a day from day 0 to day 9, female Balb/c mice, read-out: Inhibition rate of change in ear thickness on day 10. The method in brief: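 Female Balb/c mice, 7 weeks old; 20 ng/mL TPA in 5% DMSO/acetone applied to outer ear on days 0, 2, 4, 7, 9. Test compound at 1% w/v topically once daily days 0-9, vehicle control. Inhibition rate from day 10 minus day 0 ear-thickness change versus control.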

Experiment [3] relates to TNFα production in LPS-stimulated Raw264.7 cells. The experiment can be described thus: TNFα production inhibition test. It is filed as cell-based. The following applies: Mus musculus, test compound 1 μmol/L, LPS 1 μg/mL, 16 hours, ELISA, read-out: Inhibition rate of TNFα production. As for the experimental part:
7×10^4 mouse macrophage-derived cell line Raw264.7 cells were suspended in 100 μL of RPMI1640 medium containing 10% fetal bovine serum, plated in a 96-well plate and incubated overnight. The culture supernatant was removed and the test compound diluted in RPMI1640 medium containing 1% fetal bovine serum (final concentration: 1 μmol/L) was added. One hour after the addition, LPS (B4:0111) (Sigma-Aldrich, L2630) was added to a final concentration of 1 μg/mL. 16 hours after the stimulation, the culture supernatant was collected and the amount of TNFα produced in the culture supernatant was determined using ELISA kit (R&D Systems, MTA00B).
The inhibition rate was calculated from the following formula. Inhibition rate (%)=100−(amount of TNFα produced in the presence of test compound/amount of TNFα produced in the absence of test compound)×100

For the compound `O=C(O)c1cc(Cl)cnc1Nc1ccc2c(ccn2Cc2ccccc2)c1` [Example 90, 2-((1-benzyl-1H-indol-5-yl)amino)-5-chloronicotinic acid], in experiment [1], the IC50 is 10 to 100 nM. Besides, the inhibition in vivo at 1 % strength in experiment [2] is at least 20%. Besides, the inhibition at 1 µM in experiment [3] was at least 50%.
The like results for `O=C(O)c1cc(C2CC2)ccc1Nc1ccc2c(cnn2Cc2ccccc2)c1` [Example 29, 2-((1-benzyl-1H-indazol-5-yl)amino)-5-cyclopropylbenzoic acid] were, in that order, at most 10 nM, at least 20% and at least 50%.
Consider `O=C(O)c1cc(C2CC2)cnc1Nc1ccc2c(ccn2Cc2ccccc2)c1` [Example 37, 2-((1-benzyl-1H-indol-5-yl)amino)-5-cyclopropylnicotinic acid], for which the IC50 in experiment [1] was at most 10 nM. Besides, the inhibition in vivo at 1 % strength in experiment [2] was at least 20%. Also, the inhibition at 1 µM in experiment [3] was at least 50%.
As for `O=C(O)c1cc(C2CC2)ccc1Nc1ccc2c(ccn2Cc2cccc(OCC(F)(F)F)c2)c1` [Example 35, 5-cyclopropyl-2-((1-(3-(2,2,2-trifluoroethoxyl)benzyl)-1H-indol-5-yl)amino)benzoic acid], the IC50 in experiment [1] was at most 10 nM. The inhibition in vivo at 1 % strength in experiment [2] was at least 20%. Besides, the inhibition at 1 µM in experiment [3] was at least 50%.
`O=C(O)c1cc(C2CC2)cnc1Nc1ccc2c(ccn2-c2ccccc2)c1` [Example 39, 5-cyclopropyl-2-((1-phenyl-1H-indol-5-yl)amino)nicotinic acid]: in experiment [1], the IC50 was at most 10 nM. Also, the inhibition in vivo at 1 % strength in experiment [2] was at least 20%. The inhibition at 1 µM in experiment [3] is at least 50%.
The like results for `O=C(O)c1cc(C2CC2)ccc1Nc1ccc2c(ccn2Cc2ccccc2)c1` [Example 94, 2-((1-benzyl-1H-indol-5-yl)amino)-5-cyclopropylbenzoic acid] were, in that order, at most 10 nM, at least 20% and at least 50%.
Regarding `O=C(O)c1cc(C2CC2)ccc1Nc1ccc2c(ccn2Cc2ccc(N3CCOCC3)cc2)c1` [Example 196, 5-cyclopropyl-2-((1-(4-morpholinobenzyl)-1H-indol-5-yl)amino)benzoic acid], the IC50 in experiment [1] was in the range of 10 to 100 nM. For the same compound, the inhibition at 1 µM in experiment [3] was at least 50%.
The like results for `O=C(O)c1cc(Cl)cnc1Nc1ccc2c(ccn2Cc2cccc(OCC(F)(F)F)c2)c1` [Example 357, 5-chloro-2-((1-(3-(2,2,2-trifluoroethoxyl)benzyl)-1H-indol-5-yl)amino)nicotinic acid] were, in that order, 10 to 100 nM and at least 50%.
The like results for `CCCCn1ccc2cc(Nc3ccc(Cl)cc3C(=O)O)ccc21` [Example 255, 2-((1-butyl-1H-indol-5-yl)amino)-5-chlorobenzoic acid] were, in that order, 10 to 100 nM and at least 50%.
On to `Cc1ccc(-n2ccc3cc(Nc4ccc(C5CC5)cc4C(=O)O)ccc32)nn1` [Example 102, 5-cyclopropyl-2-((1-(6-methylpyridazin-3-yl)-1H-indol-5-yl)amino)benzoic acid], for which the IC50 in experiment [1] lay within 10 to 100 nM. For the same compound, in experiment [3], the inhibition at 1 µM was at least 50%.
The like results for `Cn1c(=O)n(Cc2ccccc2)c2ccc(Nc3ccc(Cl)cc3C(=O)O)cc21` [Example 65, 2-((1-benzyl-3-methyl-2-oxo-2,3-dihydro-1H-benzo[d]imidazol-5-yl)amino)-5-chlorobenzoic acid] were, in that order, 100 to 1000 nM and at least 50%.
Taken in the same sequence, the figures for `O=C(O)c1cc(Cl)ccc1Nc1ccc2c(ccn2Cc2cccc(OC(F)F)c2)c1` [Example 277, 5-chloro-2-((1-(3-(difluoromethoxy)benzyl)-1H-indol-5-yl)amino)benzoic acid] were at most 10 nM and at least 50%.
`O=C(O)c1cc(C2CC2)ccc1Nc1ccc2c(c1)sc(=O)n2Cc1ccccc1` [Example 73, 2-((3-benzyl-2-oxo-2,3-dihydrobenzo[d]thiazol-6-yl)amino)-5-cyclopropylbenzoic acid]: the IC50 in experiment [1] was at most 10 nM. Moreover, the inhibition at 1 µM in experiment [3] was at least 50%.
For `O=C(O)c1nc(C2CC2)cnc1Nc1ccc2c(ccn2Cc2ccccc2)c1` [Example 71, 3-((1-benzyl-1H-indol-5-yl)amino)-6-cyclopropylpyrazine-2-carboxylic acid], the IC50 in experiment [1] is at most 10 nM. Besides, the inhibition in vivo at 1 % strength in experiment [2] is at least 20%. Also, in experiment [3], the inhibition at 1 µM is at least 50%.
With `O=C(O)c1cc(Cl)ccc1Nc1ccc2c(c1)CCN2c1ccccc1` [Example 283, 5-chloro-2-((1-phenylindolin-5-yl)amino)benzoic acid], in experiment [1], the IC50 was at most 10 nM. Further, the inhibition at 1 µM in experiment [3] was at least 50%.
For `O=C(O)c1cc(C(F)(F)F)ccc1Nc1ccc2c(ccn2Cc2ccccc2)c1` [Example 32, 2-((1-benzyl-1H-indol-5-yl)amino)-5-(trifluoromethyl)benzoic acid], the IC50 in experiment [1] is at most 10 nM. The inhibition in vivo at 1 % strength in experiment [2] is at least 20%. Moreover, the inhibition at 1 µM in experiment [3] is at least 50%.
Taken in the same sequence, the figures for `O=C(O)c1cc(C2CC2)cnc1Nc1ccc2c(c1)sc(=O)n2Cc1ccccc1` [Example 75, 2-((3-benzyl-2-oxo-2,3-dihydrobenzo[d]thiazol-6-yl)amino)-5-cyclopropylnicotinic acid] were at most 10 nM, at least 20% and at least 50%.
Taken in the same sequence, the figures for `O=C(O)c1cc(Cl)ccc1Nc1cccc2c1ccn2-c1ccccc1` [Example 275, 5-chloro-2-((1-phenyl-1H-indol-4-yl)amino)benzoic acid] were at most 10 nM, at least 20% and at least 50%.

Source of the values: US9624215B2, “Amine derivative or salt thereof” (TOYAMA CHEMICAL CO., LTD., priority 2012, dated 2017).
